These results are taken from paper PMC5333395, “Assessing histone demethylase inhibitors in cells: lessons learned” (Epigenetics & Chromatin, 2017).

The target in experiment [1] is T1, KDM2A (Homo sapiens, UniProt Q9Y2K7).
T1 sequence (Q9Y2K7 1-1162): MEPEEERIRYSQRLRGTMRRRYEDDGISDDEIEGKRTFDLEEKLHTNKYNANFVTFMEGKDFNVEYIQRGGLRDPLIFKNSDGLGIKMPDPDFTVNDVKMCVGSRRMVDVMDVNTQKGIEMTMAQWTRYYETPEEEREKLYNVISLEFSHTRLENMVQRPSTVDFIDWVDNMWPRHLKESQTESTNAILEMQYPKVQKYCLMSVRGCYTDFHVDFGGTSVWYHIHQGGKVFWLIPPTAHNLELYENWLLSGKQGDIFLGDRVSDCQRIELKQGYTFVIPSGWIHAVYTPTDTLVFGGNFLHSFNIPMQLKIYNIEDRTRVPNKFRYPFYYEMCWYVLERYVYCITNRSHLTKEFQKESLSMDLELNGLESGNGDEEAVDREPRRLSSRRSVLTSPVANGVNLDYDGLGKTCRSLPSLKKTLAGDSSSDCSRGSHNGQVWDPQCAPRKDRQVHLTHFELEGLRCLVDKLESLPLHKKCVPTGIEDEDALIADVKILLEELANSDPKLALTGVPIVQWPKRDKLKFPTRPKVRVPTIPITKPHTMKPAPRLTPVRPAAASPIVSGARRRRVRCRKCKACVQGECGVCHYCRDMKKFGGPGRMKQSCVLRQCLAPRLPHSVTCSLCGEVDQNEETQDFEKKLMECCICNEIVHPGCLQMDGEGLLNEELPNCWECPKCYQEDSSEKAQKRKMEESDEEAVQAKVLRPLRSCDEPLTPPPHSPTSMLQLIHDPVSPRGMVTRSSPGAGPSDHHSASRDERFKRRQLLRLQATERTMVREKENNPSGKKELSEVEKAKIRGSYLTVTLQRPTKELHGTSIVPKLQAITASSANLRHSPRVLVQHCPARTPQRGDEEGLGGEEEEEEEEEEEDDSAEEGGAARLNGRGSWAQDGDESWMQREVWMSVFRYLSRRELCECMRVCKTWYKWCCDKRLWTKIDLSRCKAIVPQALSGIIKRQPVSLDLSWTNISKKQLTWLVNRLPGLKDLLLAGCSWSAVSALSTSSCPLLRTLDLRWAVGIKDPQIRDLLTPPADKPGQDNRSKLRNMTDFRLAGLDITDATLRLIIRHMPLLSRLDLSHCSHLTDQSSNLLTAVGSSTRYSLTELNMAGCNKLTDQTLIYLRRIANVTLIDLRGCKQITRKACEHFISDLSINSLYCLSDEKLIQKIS
The experiment can be described thus: High-content immunofluorescence (IF) assay, overexpressed full-length FLAG-tagged KDM in HeLa cells. The settings on record: HeLa cells overexpressing WT KDM2A, 24 h; read-out: KDM2A, in cells, EC50 by IF assay (head: IC50). It counts as cell-based. The procedure: (§1) HeLa cells (ATCC) were cultured at 37 °C and 5% CO2 in Minimal Essential Media—Eagle (Sigma-Aldrich, UK) supplemented with 10% heat-inactivated foetal calf serum (FCS) (Gibco, UK), and 1% L-glutaMAX (Gibco, UK) in T75 flasks (Sarstedt, UK) and passaged regularly with TrypLE (Life Technologies, UK) before cells reached confluence. On day 0, 7000 cells per well were plated on a 96-well clear bottom CellCarrier plate (PerkinElmer, UK). The next day the cells were transfected with Lipofectamine 3000 (ThermoFisher Scientific, UK) following the manufacturer’s instructions. Briefly, 0.1 µg of plasmid DNA (encoding for the respective demethylase) and 0.15 µL of Lipofectamine 3000 were diluted in separate tubes containing 5 µL OptiMEM. 0.15 µL of P3000 was added to the tube with the DNA. The two solutions were then mixed gently and allowed to incubate for 5 min at room temperature. Next, the DNA-lipid complex was added to the cells for 4 h at 37 °C and 5% CO2.
(§2) Compound dilutions were made in a 96-well PCR plate (Starlab, UK). The culture medium was supplemented with 0.4% DMSO so that the solvent concentration was maintained throughout. Compounds were serially diluted at a 1:2 or 1:3 dilution ratio. Next, the cell culture plate was removed from the incubator and the medium was gently aspirated and replaced with the fresh medium containing diluted compounds.
(§3) Then cells were rinsed once with PBS and blocked for 30 min at room temperature using 3% v/v foetal calf serum diluted in PBS.

Another experiment has as its target KDM6B (Homo sapiens, UniProt O15054). The experiment is described as above. Type of experiment: cell-based. The settings on record: HeLa cells overexpressing WT KDM6B, H3K27me3 mark, 24 h; read-out: KDM6B, in cells, EC50 by IF assay (head: IC50). The procedure: as §1, §2, §3
The target in the next experiment is KDM5C (Homo sapiens, UniProt P41229). More on the design: method as in PMID 26741168. The settings on record: AlphaScreen; in vitro biochemical profiling previously reported; cited from earlier work. (Bead proximity is the source of the signal in Alpha formats.)
KDM5C, sequence (P41229 whole entry): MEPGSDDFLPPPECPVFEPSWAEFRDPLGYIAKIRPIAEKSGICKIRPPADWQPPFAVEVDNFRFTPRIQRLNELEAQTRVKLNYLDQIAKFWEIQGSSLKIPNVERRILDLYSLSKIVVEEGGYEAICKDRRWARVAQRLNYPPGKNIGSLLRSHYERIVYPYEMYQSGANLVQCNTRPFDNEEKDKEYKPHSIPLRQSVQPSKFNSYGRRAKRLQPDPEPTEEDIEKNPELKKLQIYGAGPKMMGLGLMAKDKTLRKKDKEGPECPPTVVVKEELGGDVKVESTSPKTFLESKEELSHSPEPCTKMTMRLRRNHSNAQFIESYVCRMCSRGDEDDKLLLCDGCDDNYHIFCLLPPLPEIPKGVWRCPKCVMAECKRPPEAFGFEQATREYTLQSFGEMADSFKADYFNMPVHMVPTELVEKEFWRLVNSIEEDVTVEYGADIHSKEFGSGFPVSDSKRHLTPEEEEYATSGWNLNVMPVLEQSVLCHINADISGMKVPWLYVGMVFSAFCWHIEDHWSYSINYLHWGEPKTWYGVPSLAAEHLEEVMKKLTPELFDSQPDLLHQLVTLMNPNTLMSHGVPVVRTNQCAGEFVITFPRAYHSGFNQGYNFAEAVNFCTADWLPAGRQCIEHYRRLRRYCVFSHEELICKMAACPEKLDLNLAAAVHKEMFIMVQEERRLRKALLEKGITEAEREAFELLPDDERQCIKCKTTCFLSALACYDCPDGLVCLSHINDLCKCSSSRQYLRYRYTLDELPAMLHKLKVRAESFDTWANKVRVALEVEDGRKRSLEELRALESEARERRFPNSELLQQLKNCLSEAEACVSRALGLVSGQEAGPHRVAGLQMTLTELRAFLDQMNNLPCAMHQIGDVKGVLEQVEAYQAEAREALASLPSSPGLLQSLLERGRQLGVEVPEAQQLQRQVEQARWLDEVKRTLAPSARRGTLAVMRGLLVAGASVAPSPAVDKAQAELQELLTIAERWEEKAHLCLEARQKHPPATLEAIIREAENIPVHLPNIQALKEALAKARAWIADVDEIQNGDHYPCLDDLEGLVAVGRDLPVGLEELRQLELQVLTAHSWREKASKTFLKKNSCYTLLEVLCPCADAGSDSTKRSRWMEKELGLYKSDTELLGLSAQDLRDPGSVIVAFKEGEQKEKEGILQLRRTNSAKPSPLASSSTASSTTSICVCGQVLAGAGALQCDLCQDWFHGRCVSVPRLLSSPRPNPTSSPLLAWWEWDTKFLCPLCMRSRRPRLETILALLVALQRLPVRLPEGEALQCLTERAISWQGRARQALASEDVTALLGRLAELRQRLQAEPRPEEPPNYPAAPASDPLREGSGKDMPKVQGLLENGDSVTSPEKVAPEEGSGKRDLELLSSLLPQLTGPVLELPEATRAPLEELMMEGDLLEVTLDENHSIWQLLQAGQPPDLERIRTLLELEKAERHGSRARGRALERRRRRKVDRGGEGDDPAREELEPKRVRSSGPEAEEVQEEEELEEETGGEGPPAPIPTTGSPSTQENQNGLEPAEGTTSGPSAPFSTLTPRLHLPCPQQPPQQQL
A further experiment concerns the target KDM5B (Homo sapiens, UniProt Q9UGL1). Further details: method as in PMID 26741168. As to conditions: AlphaScreen; in vitro biochemical profiling previously reported; cited from earlier work.
Experiment [2] has as its target T1, KDM2A. More on the design: method as in PMID 26741168. The settings on record: RapidFire under low iron condition (0.2 mM); previously reported; read-out: KDM2A IC50, in vitro, RapidFire; cited from earlier work.
In a further experiment the target is KDM5D (Homo sapiens, UniProt Q9BY66). The experiment can be described thus: AlphaScreen in vitro demethylase assay. Type of experiment: biochemical. As to conditions: IC50 ± SD (number of replicates). The procedure: IC50 values were determined as previously described. The following amendments were made to the protocol for carrying out 2-OG competition assays.
KDM5D, sequence (Q9BY66 whole entry): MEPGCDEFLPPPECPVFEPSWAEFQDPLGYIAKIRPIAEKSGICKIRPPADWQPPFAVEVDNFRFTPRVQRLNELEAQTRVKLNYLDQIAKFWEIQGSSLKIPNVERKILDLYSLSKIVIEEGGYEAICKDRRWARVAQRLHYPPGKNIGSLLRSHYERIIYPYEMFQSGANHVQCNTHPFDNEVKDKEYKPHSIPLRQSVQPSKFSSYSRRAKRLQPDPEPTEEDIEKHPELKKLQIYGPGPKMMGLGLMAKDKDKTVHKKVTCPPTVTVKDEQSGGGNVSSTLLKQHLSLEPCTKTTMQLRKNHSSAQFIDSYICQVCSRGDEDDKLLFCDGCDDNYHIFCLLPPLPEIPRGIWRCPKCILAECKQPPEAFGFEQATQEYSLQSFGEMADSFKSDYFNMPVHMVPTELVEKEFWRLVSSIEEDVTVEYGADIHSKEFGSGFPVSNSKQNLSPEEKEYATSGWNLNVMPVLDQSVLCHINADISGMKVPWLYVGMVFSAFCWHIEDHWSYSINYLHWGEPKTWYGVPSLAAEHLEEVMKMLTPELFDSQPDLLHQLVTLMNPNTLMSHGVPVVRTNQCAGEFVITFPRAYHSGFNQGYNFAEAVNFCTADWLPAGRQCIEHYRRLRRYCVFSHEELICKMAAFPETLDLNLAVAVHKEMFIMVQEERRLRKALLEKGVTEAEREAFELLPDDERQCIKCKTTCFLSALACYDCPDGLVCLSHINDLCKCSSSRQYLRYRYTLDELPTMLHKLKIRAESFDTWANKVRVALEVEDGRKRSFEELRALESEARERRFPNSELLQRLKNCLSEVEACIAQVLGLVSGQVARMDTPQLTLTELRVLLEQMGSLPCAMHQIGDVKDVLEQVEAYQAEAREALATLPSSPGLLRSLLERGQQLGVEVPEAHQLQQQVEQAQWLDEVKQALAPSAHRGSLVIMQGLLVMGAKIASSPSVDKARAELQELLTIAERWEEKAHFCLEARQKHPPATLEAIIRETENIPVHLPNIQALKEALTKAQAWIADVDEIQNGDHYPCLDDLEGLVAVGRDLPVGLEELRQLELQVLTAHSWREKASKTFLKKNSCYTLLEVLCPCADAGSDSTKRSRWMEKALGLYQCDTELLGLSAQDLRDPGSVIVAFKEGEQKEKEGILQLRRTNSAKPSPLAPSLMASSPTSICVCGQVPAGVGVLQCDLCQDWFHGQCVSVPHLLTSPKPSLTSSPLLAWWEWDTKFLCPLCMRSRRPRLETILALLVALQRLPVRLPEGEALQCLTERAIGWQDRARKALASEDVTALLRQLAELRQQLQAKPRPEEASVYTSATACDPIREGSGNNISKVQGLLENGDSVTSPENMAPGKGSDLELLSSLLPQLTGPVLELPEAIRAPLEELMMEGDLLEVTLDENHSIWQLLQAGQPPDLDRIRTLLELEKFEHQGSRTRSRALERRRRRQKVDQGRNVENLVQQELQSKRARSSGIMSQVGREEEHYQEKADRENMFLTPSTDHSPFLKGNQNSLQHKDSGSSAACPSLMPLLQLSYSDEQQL

KDM5B, sequence (Q9UGL1 whole entry): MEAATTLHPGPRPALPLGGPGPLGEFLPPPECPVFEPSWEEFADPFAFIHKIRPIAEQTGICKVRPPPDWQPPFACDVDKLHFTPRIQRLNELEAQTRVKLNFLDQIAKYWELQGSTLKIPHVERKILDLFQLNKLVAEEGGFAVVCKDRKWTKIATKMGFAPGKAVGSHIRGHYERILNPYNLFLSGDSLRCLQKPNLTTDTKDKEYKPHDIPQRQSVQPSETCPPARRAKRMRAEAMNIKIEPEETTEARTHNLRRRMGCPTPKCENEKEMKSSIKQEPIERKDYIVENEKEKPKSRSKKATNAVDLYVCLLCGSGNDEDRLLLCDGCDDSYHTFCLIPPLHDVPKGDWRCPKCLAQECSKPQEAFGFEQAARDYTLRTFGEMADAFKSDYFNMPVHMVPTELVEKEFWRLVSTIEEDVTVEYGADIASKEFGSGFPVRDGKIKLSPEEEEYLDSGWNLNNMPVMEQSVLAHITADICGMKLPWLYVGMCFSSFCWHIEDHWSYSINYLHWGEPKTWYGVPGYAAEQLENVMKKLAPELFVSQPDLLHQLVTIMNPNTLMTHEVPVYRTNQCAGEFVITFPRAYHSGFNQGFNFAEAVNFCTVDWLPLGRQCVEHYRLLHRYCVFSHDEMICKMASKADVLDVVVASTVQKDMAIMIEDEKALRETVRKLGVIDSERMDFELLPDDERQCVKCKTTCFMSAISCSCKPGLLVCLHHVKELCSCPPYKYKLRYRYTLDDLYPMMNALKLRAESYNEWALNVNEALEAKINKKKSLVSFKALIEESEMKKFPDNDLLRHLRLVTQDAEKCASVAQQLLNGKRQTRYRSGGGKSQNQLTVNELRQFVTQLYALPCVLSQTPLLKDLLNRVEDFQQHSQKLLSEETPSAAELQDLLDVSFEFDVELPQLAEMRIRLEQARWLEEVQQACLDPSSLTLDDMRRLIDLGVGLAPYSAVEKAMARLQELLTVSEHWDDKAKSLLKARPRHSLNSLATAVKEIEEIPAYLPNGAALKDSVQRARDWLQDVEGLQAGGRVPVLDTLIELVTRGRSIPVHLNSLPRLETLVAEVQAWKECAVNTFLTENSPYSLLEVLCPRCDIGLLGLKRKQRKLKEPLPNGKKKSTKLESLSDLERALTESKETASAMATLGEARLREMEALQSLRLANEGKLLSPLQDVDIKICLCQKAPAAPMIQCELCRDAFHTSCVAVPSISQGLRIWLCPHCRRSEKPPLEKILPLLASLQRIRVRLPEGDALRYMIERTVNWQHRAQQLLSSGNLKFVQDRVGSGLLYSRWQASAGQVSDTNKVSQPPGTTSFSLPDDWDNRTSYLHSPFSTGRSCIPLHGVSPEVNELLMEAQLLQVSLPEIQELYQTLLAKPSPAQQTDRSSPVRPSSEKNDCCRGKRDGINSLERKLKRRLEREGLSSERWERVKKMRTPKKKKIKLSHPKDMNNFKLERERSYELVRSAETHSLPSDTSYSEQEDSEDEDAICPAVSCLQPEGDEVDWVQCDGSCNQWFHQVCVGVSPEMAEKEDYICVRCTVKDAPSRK

For the compound `CCN(CCN(C)C)C(=O)CNCc1cncc(C(N)=O)c1` [KDOAM-32], the EC50 on KDM2A [1] and on KDM6B was above 100000 nM each time.

Regarding `Clc1ccc(N/N=C(\c2ccccc2)c2ccccn2)nc1` [JIB-04 E], the values for the half-inhibitory concentration (IC50) on KDM5C, on KDM5B and at KDM2A [2] were 622 ± 50 nM, 561 nM and 1200 ± 10 nM, respectively.

Consider `CCN(CCN(C)C)C(=O)CNCc1cc(C(=O)O)ccn1` [KDOAM-20], for which, on KDM5D, the midpoint of inhibition, the IC50, lay at 19 ± 4 nM.
